US9573947B2, “Salt of pyrazoloquinoline derivative, and crystal thereof” (Eisai R&D Management Co., Ltd., priority 2013, dated 2017)

Key:
cerebrospinal fluid cGMP = test: Effect on rodent cerebrospinal fluid cGMP; assay type: in vivo, Long-Evans (LE) male rats; conditions: LE rats, 10 mg/kg, 1 hour post-administration; relative to vehicle group; compound synthesized according to Reference Example 1
Protocol: Test compounds were administered to ICR male mice (CHARLES RIVER LABORATORIES JAPAN, INC.), Sprague-Dawley (SD) male rats (CHARLES RIVER LABORATORIES JAPAN, INC.) or Long-Evans (LE) male rats (Institute for Animal Reproduction (general incorporated foundation)), and then cerebrospinal fluid was collected under pentobarbital anesthesia and stored at −20° C. Measurement of cGMP in cerebrospinal fluid was performed according to the acetylation EIA procedure of cGMP EIA kit (GE Healthcare) or the non-acetylation procedure of cGMP EIA kit (Cayman Chemical).

hippocampal cGMP = test: Effect on rodent hippocampal cGMP; assay type: in vivo, LE male rats; conditions: LE rats, 10 mg/kg, 1 hour post-administration; relative to vehicle group; compound synthesized according to Reference Example 1
Protocol: Test compounds were administered to SD male rats (CHARLES RIVER LABORATORIES JAPAN, INC.) or LE male rats (Institute for Animal Reproduction (foundation)). Then a microwave treatment was performed under pentobarbital anesthesia, and the hippocampus were isolated, subjected to measurement of their wet weights, then frozen in liquid nitrogen and stored at −80° C. In the measurement of cGMP in the hippocampus, a 0.5 M perchloric acid/1 mM EDTA solution was added so that the wet weight would constitute 5% (w/v), and the mixture was homogenized. After the homogenization, the homogenate was centrifuged (10000 rpm, 15 min), and the supernatant was collected. The collected supernatant was neutralized with a 2 M potassium hydrogen carbonate solution and centrifuged (13000 rpm, 10 min) The cGMP concentration in the supernatant was measured according to the non-acetylation EIA procedure of cGMP EIA kit (GE Healthcare). The results were calculated using the following formula as an increase (C) in the amount of cGMP in the test compound-administered group (B) relative to the amount of cGMP in the vehicle-administered group (A). cGMP increase(C)=[(B)−(A)]/(A)×100(%) In the case of the compound (I) synthesized according to Reference Example 1, the cGMP increase was 58% at 1 hour post-administration of a dose of 10 mg/kg to LE rats.

[1] = Test on oral absorption characteristics in dogs; assay type: in vivo, beagle dogs; conditions: oral capsule, 100 mg in terms of the free form; for AREA UNDER PLASMA CONCENTRATION-TIME CURVE, MEAN: mean of 4 beagle dogs
[2] = Dissolution test in fasted state simulated intestinal fluid; assay type: physicochemical; conditions: fasted state simulated intestinal fluid pH 6.5, 37° C., 50 rpm, in terms of compound (I)
Protocol: Each of compound (I) (50 mg), the compound of Example 1 (30 mg) and the compound of Example 2 (30 mg) was filled into a hydroxypropyl methylcellulose capsule, together with an equal weight of lactose hydrate. A 708-DS from Agilent Technologies was equipped with small stirring paddles and small vessels, and used as a dissolution test apparatus. Each drug-filled capsule was added to 50 ml of fasted state simulated intestinal fluid (a phosphate buffer pH 6.5 containing 0.75 mM lecithin and 3 mM sodium taurocholate) which had been warmed to 37° C. The drug was dissolved by rotating the stirring paddle at a speed of 50 rpm. The dissolved solution was sampled over time and the drug concentrations were measured by HPLC. Such dissolution tests using fasted state simulated intestinal fluid are often used to evaluate the dissolution and absorption characteristics of drugs (e.g., Takano et al., “Oral absorption of poorly water-soluble drugs: computer simulation of fraction absorbed in humans from a miniscale dissolution test”, Pharm Res., vol. 23, pp. 1144-1156, 2006). The results were shown in Table 1 and the graph in FIG. 12.

Question: What does the source list for `COc1ncc(C)c(-c2ccc3c(c2)[nH]c(=O)c2cnn([C@H]4CCOC4)c23)c1C` [compound (I), (S)-7-(2-methoxy-3,5-dimethylpyridin-4-yl)-1-(tetrahydrofuran-3-yl)-1H-pyrazolo[4,3-c]quinolin-4(5H)-one]?
Answer: cGMP increase in cerebrospinal fluid (cerebrospinal fluid cGMP): 274%; cGMP increase in hippocampus (hippocampal cGMP): 58%; PLASMA CONCENTRATION ([1]; Dog 1, 0.25 hours): BQL; PLASMA CONCENTRATION ([1]; Dog 1, 0.5 hours): 5 ng/mL; PLASMA CONCENTRATION ([1]; Dog 1, 1 hour): 55 ng/mL; PLASMA CONCENTRATION ([1]; Dog 1, 2 hours): 94 ng/mL; PLASMA CONCENTRATION ([1]; Dog 1, 4 hours): 64 ng/mL; PLASMA CONCENTRATION ([1]; Dog 1, 6 hours): 45 ng/mL; PLASMA CONCENTRATION ([1]; Dog 1, 8 hours): 43 ng/mL; PLASMA CONCENTRATION ([1]; Dog 1, 24 hours): 234 ng/mL; AREA UNDER PLASMA CONCENTRATION-TIME CURVE ([1]; Dog 1): 2660 ng·h/mL; PLASMA CONCENTRATION ([1]; Dog 2, 0.25 hours): BQL; PLASMA CONCENTRATION ([1]; Dog 2, 0.5 hours): 29 ng/mL; PLASMA CONCENTRATION ([1]; Dog 2, 1 hour): 67 ng/mL; PLASMA CONCENTRATION ([1]; Dog 2, 2 hours): 61 ng/mL; PLASMA CONCENTRATION ([1]; Dog 2, 4 hours): 51 ng/mL; PLASMA CONCENTRATION ([1]; Dog 2, 6 hours): 45 ng/mL; PLASMA CONCENTRATION ([1]; Dog 2, 8 hours): 41 ng/mL; PLASMA CONCENTRATION ([1]; Dog 2, 24 hours): 7 ng/mL; AREA UNDER PLASMA CONCENTRATION-TIME CURVE ([1]; Dog 2): 770 ng·h/mL; PLASMA CONCENTRATION ([1]; Dog 3, 0.25 hours): BQL; PLASMA CONCENTRATION ([1]; Dog 3, 0.5 hours): 34 ng/mL; PLASMA CONCENTRATION ([1]; Dog 3, 1 hour): 142 ng/mL; PLASMA CONCENTRATION ([1]; Dog 3, 2 hours): 133 ng/mL; PLASMA CONCENTRATION ([1]; Dog 3, 4 hours): 104 ng/mL; PLASMA CONCENTRATION ([1]; Dog 3, 6 hours): 77 ng/mL; PLASMA CONCENTRATION ([1]; Dog 3, 24 hours): 9 ng/mL; AREA UNDER PLASMA CONCENTRATION-TIME CURVE ([1]; Dog 3): 1430 ng·h/mL; PLASMA CONCENTRATION ([1]; Dog 4, 0.25 hours): BQL; PLASMA CONCENTRATION ([1]; Dog 4, 0.5 hours): BQL; PLASMA CONCENTRATION ([1]; Dog 4, 1 hour): 17 ng/mL; PLASMA CONCENTRATION ([1]; Dog 4, 24 hours): 28 ng/mL; AREA UNDER PLASMA CONCENTRATION-TIME CURVE ([1]; Dog 4): 2680 ng·h/mL; concentration at 8 h ([1]; beagle, dog, plasma, po, 100 mg, Dog 3, 8 hours): 74 ng/mL; concentration at 2 h ([1]; beagle, dog, plasma, po, 100 mg, Dog 4, 2 hours): 227 ng/mL; concentration at 4 h ([1]; beagle, dog, plasma, po, 100 mg, Dog 4, 4 hours): 208 ng/mL; concentration at 6 h ([1]; beagle, dog, plasma, po, 100 mg, Dog 4, 6 hours): 164 ng/mL; concentration at 8 h ([1]; beagle, dog, plasma, po, 100 mg, Dog 4, 8 hours): 151 ng/mL; concentration at 24 h ([1]; beagle, dog, plasma, po, 100 mg, mean of dogs, 24 hours): 69 ng/mL; AREA UNDER PLASMA CONCENTRATION-TIME CURVE, MEAN [1]: 1880 ± 950 ng·h/mL; AREA UNDER PLASMA CONCENTRATION-TIME CURVE, MEAN ([1]; listed as COMPOUND (I)): 1880 ng·h/mL; PLASMA CONCENTRATION MEAN ([1]; mean of dogs, 0.5 hours): 23 ng/mL; PLASMA CONCENTRATION MEAN ([1]; mean of dogs, 1 hour): 70 ng/mL; PLASMA CONCENTRATION MEAN ([1]; mean of dogs, 2 hours): 129 ng/mL; PLASMA CONCENTRATION MEAN ([1]; mean of dogs, 4 hours): 106 ng/mL; PLASMA CONCENTRATION MEAN ([1]; mean of dogs, 6 hours): 83 ng/mL; PLASMA CONCENTRATION MEAN ([1]; mean of dogs, 8 hours): 77 ng/mL; CONCENTRATION (dissolution) ([2]; 6 minutes): 100 ng/mL; CONCENTRATION (dissolution) ([2]; 10 minutes): 300 ng/mL; CONCENTRATION (dissolution) ([2]; 15 minutes): 1800 ng/mL; CONCENTRATION (dissolution) ([2]; 20 minutes): 3200 ng/mL; CONCENTRATION (dissolution) ([2]; 30 minutes): 4400 ng/mL; CONCENTRATION (dissolution) ([2]; 60 minutes): 5000 ng/mL; CONCENTRATION (dissolution) ([2]; 90 minutes): 5200 ng/mL; CONCENTRATION (dissolution) ([2]; 120 minutes): 5100 ng/mL; CONCENTRATION (dissolution) ([2]; 180 minutes): 5200 ng/mL; CONCENTRATION (dissolution) ([2]; 240 minutes): 5400 ng/mL
